The record followed here is patent publication US20110201550A1, “COMBINATION OF AMIDINE DERIVATIVES WITH CYCLIC DEPSIPEPTIDES” (Bayer Animal Health GMBH, priority 2008, published 2011).

The test concerns Nippostrongylus brasiliensis. The test is described as follows: In-vitro experiments with adult Nippostrongylus brasiliensis: acetylcholine esterase activity in the incubation medium. Type of test: cell-based. The arrangement: key: 0=no activity (<50% enzyme inhibition); 1=weak activity; 2=good activity; 3=full activity. The protocol: Test Method for In-Vitro Experiments with Nippostrongylus brasiliensis
Adult Nippostrongylus brasiliensis were isolated from the small intestine of female Wistar rats and transferred into 0.9% NaCl containing 20 μg/ml sisomycin and 2 μg/ml Canesten. The groups of worms (both sexes) were incubated in 1.0 ml of medium, which was also used for determining the acetylcholine esterase activity. The incubation and the enzyme assay were described in the paper by Rapson et al. (1987) Z. Parasitenkunde 73, 190-191. […] The controls only contained DMSO. The acetylcholine esterase activity in the incubation medium was determined in accordance with the above publication.
The efficacy was categorized by means of a scale 0-3, where 0=no activity (<50% enzyme inhibition); 1=weak activity; 2=good activity; 3=full activity

Consider `CC(C)CC1C(=O)OC(Cc2ccccc2)C(=O)N(C)C(CC(C)C)C(=O)OC(C)C(=O)N(C)C(CC(C)C)C(=O)OC(Cc2ccccc2)C(=O)N(C)C(CC(C)C)C(=O)OC(C)C(=O)N1C` (stereo not drawn) [PF1022A], for which the “efficacy (scale 0-3, acetylcholine esterase inhibition)” value is reported as 1 (PF1022A 0.01 ppm alone (Amidantel 0 ppm)); 1 (PF1022A 0.01 ppm alone (Bay d 9216 0 ppm)); 1 (PF1022A 0.05 ppm alone (Amidantel 0 ppm)); 1 (PF1022A 0.05 ppm alone (Bay d 9216 0 ppm)); 2 (PF1022A 0.1 ppm alone (Amidantel 0 ppm)); 2 (PF1022A 0.1 ppm alone (Bay d 9216 0 ppm)).
For the compound `COCC(=O)Nc1ccc(/N=C(\C)N(C)C)cc1` [Amidantel, amidantel], the “efficacy (scale 0-3, acetylcholine esterase inhibition)” value is, setting by setting: (Amidantel 10 ppm alone (PF1022A 0 ppm)) 1; (Amidantel 50 ppm alone (PF1022A 0 ppm)) 1; (Amidantel 100 ppm alone (PF1022A 0 ppm)) 1.
With `C/C(=N\c1ccc(N)cc1)N(C)C` [Bay d 9216], the “efficacy (scale 0-3, acetylcholine esterase inhibition)” value (Bay d 9216 1 ppm alone (PF1022A 0 ppm)) came to 1; the “efficacy (scale 0-3, acetylcholine esterase inhibition)” value (Bay d 9216 5 ppm alone (PF1022A 0 ppm)) worked out at 1; the “efficacy (scale 0-3, acetylcholine esterase inhibition)” value (Bay d 9216 10 ppm alone (PF1022A 0 ppm)) was found to be 1.
